According to article PMC7076013 (Scientific Reports, 2020):

Test system: four melanoma and four colon cancer cell lines
Experiment: MTT and CV viability, whole panel of cell lines
Format: cell-based
Conditions: 48 h
Procedure: Both melanoma and colon cancer are tumor types tightly connected with inflammation, while the expression of COX-2 in the selected cell lines was highly variable. Since a lot of discrepancies were found in the literature concerning the expression of this enzyme[5],[48]–[53], both COX-1 and COX-2 expression was analyzed by Western blot. […] The cells were treated with a wide range of doses of 4a–c, 5, and 6 for 48 h and cell viability was determined by MTT (3-(4,5-dimethylthiazol-2-yl)-2,5-diphenyltetrazolium bromide) and CV (crystal violet) assays. The obtained IC50 values were similar for both assays (Table 1).
Reagents were obtained from Sigma (St. Louis, MO) unless indicated otherwise. […]
S ystems, Minneapolis, MN USA). […] After being detached b y tr ypsinization, cells were seeded in defined number as follows: 2.5 × 10^3 cells/well in 96-well plates for viability assessment and 2 × 10^4 cells/well in 24-well plates for flow cytometry. […]
Before treatment, non- adherent cells were removed. Compounds 4a- c, 5 and 6 were dissolved in DMSO and stored at −20 °C for a m onth. […]
The number of viable cel ls in culture was estimated by the MTT (3-(4,5- dimethylthiazol- 2-yl ) - 2,5- diphenyltetrazolium bromide) and CV (crystal violet) tests. Cells were incubated in the presence of compounds 4a- c, 5 and 6 for 48 h, then the viability was measured as described.4 […]

4-[4-(methylnitrooxy)phenyl]-3-(1,2-dicarba-closo-dodecaboranyl)furan-2(5 H)-one [Compound 5]
effect on cell viability across tested cell lines: highest decrease in cell viability in all of the melanoma cell lines
